Test results: ChEMBL document CHEMBL1201861, “Genomics of Drug Sensitity in Cancer screening data, Wellcome Trust Sanger Institute”

Tests used:
SK-OV-3 = experiment: cells; assay type: functional, cell-based, Homo sapiens; details: Homo sapiens, SK-OV-3;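 note: growth inhibition of SK-OV-3 human cells, read out with a cell viability assay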
Description: SANGER: Inhibition of human SK-OV-3 cell growth in a cell viability assay.

HCC1954 = experiment: cells; assay type: functional, cell-based, Homo sapiens; details: Homo sapiens, HCC1954;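 note: growth inhibition of human HCC1954 cells, read out with a cell viability assay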
Description: SANGER: Inhibition of human HCC1954 cell growth in a cell viability assay.

ACHN = experiment: cells; assay type: functional, cell-based, Homo sapiens; details: Homo sapiens, ACHN;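 note: cell viability read-out used to gauge how strongly growth of human ACHN cells is suppressed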
Description: SANGER: Inhibition of human ACHN cell growth in a cell viability assay.

TUR = experiment: cells; assay type: functional, cell-based, Homo sapiens; details: Homo sapiens, TUR;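 note: growth inhibition of human TUR cells, read out with a cell viability assay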
Description: SANGER: Inhibition of human TUR cell growth in a cell viability assay.

ABC-1 = experiment: cells; assay type: functional, cell-based, Homo sapiens; details: Homo sapiens, ABC-1;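 note: growth inhibition of human ABC-1 cells, read out by a cell viability assay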
Description: SANGER: Inhibition of human ABC-1 cell growth in a cell viability assay.

ChaGo-K-1 = experiment: cells; assay type: functional, cell-based, Homo sapiens; details: Homo sapiens, ChaGo-K-1;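 note: growth inhibition of ChaGo-K-1 cells, read out with a cell viability assay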
Description: SANGER: Inhibition of human ChaGo-K-1 cell growth in a cell viability assay.

A204 = experiment: cells; assay type: functional, cell-based, Homo sapiens; details: Homo sapiens, A204;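 note: growth inhibition of human A204 cells, read out with a cell viability assay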
Description: SANGER: Inhibition of human A204 cell growth in a cell viability assay.

IM-9 = experiment: SANGER: Inhibition of human IM-9 cell growth in a cell viability assay.; assay type: functional, cell-based; details: Homo sapiens, IM-9
KYSE-520 cell line = experiment: cells; assay type: functional, cell-based, Homo sapiens; details: Homo sapiens, KYSE-520;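 note: growth inhibition of human KYSE-520 cells, read out with a viability assay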
Description: SANGER: Inhibition of human KYSE-520 cell growth in a cell viability assay.

NCI-H1693 = experiment: cells; assay type: functional, cell-based, Homo sapiens; details: Homo sapiens, NCI-H1693;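 note: growth inhibition of the human cell line, read out with a cell viability assay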
Description: SANGER: Inhibition of human NCI-H1693 cell growth in a cell viability assay.

PC-14 = experiment: cells; assay type: functional, cell-based, Homo sapiens; details: Homo sapiens, PC-14;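 note: cell viability assay measuring inhibition of PC-14 cell growth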
Description: SANGER: Inhibition of human PC-14 cell growth in a cell viability assay.

NCI-H719 = experiment: cells; assay type: functional, cell-based, Homo sapiens; details: Homo sapiens, NCI-H719;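 note: growth inhibition of the cultured cell line, read out with a viability assay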
Description: SANGER: Inhibition of human NCI-H719 cell growth in a cell viability assay.

LoVo = experiment: cells; assay type: functional, cell-based, Homo sapiens; details: Homo sapiens, LoVo;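 note: growth inhibition of human LoVo cells, read out with a cell viability assay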
Description: SANGER: Inhibition of human LoVo cell growth in a cell viability assay.

KP-4 = experiment: cells; assay type: functional, cell-based, Homo sapiens; details: Homo sapiens, KP-4;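 note: human KP-4 cells, with growth inhibition read out through a cell viability assay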
Description: SANGER: Inhibition of human KP-4 cell growth in a cell viability assay.

T47D = experiment: cells; assay type: functional, cell-based, Homo sapiens; details: Homo sapiens, T47D;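 note: growth inhibition of human T47D cells, measured with a cell viability assay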
Description: SANGER: Inhibition of human T47D cell growth in a cell viability assay.

HGC-27 = experiment: cells; assay type: functional, cell-based, Homo sapiens; details: Homo sapiens, HGC-27;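 note: growth inhibition of human HGC-27 cells, read out in a cell viability assay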
Description: SANGER: Inhibition of human HGC-27 cell growth in a cell viability assay.

ST486 = experiment: SANGER: Inhibition of human ST486 cell growth in a cell viability assay.; assay type: functional, cell-based; details: Homo sapiens, ST486
T84 = experiment: cells; assay type: functional, cell-based, Homo sapiens; details: Homo sapiens, T84;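 note: growth inhibition measured with a cell viability readout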
Description: SANGER: Inhibition of human T84 cell growth in a cell viability assay.

Ca9-22 = experiment: cells; assay type: functional, cell-based, Homo sapiens; details: Homo sapiens, Ca9-22;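 note: growth inhibition of Ca9-22 cells, read out with a cell viability assay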
Description: SANGER: Inhibition of human Ca9-22 cell growth in a cell viability assay.

NCI-H2228 = experiment: cells; assay type: functional, cell-based, Homo sapiens; details: Homo sapiens, NCI-H2228;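 note: growth inhibition of human NCI-H2228 cells, read out by a cell viability assay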
Description: SANGER: Inhibition of human NCI-H2228 cell growth in a cell viability assay.

HT-29 = experiment: cells; assay type: functional, cell-based, Homo sapiens; details: Homo sapiens, HT-29;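 note: growth inhibition of human HT-29 cells, read out by a cell viability assay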
Description: SANGER: Inhibition of human HT-29 cell growth in a cell viability assay.

NCI-H1417 = experiment: cells; assay type: functional, cell-based, Homo sapiens; details: Homo sapiens, NCI-H1417;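 note: human NCI-H1417 cells, growth inhibition determined with a cell viability readout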
Description: SANGER: Inhibition of human NCI-H1417 cell growth in a cell viability assay.

JEG-3 = experiment: cells; assay type: functional, cell-based, Homo sapiens; details: Homo sapiens, JEG-3;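 note: growth inhibition of human JEG-3 cells, read out with a cell viability assay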
Description: SANGER: Inhibition of human JEG-3 cell growth in a cell viability assay.

RPMI-2650 = experiment: cells; assay type: functional, cell-based, Homo sapiens; details: Homo sapiens, RPMI-2650
Description: SANGER: Inhibition of human RPMI-2650 cell growth in a cell viability assay.

YT = experiment: cells; assay type: functional, cell-based, Homo sapiens; details: Homo sapiens, YT
Description: SANGER: Inhibition of human YT cell growth in a cell viability assay.

MeWo = experiment: cells; assay type: functional, cell-based, Homo sapiens; details: Homo sapiens, MeWo;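 note: growth inhibition of MeWo cells, determined by a cell viability readout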
Description: SANGER: Inhibition of human Mewo cell growth in a cell viability assay.

ASPC1 = experiment: cells; assay type: functional, cell-based, Homo sapiens; details: Homo sapiens, ASPC1;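 note: growth inhibition of AsPC-1 cells, read out with a cell viability assay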
Description: SANGER: Inhibition of human AsPC-1 cell growth in a cell viability assay.

NCI-H2141 = experiment: cells; assay type: functional, cell-based, Homo sapiens; details: Homo sapiens, NCI-H2141;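 note: growth inhibition of human NCI-H2141 cells, read out with a cell viability assay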
Description: SANGER: Inhibition of human NCI-H2141 cell growth in a cell viability assay.

PF-382 = experiment: cells; assay type: functional, cell-based, Homo sapiens; details: Homo sapiens, PF-382
Description: SANGER: Inhibition of human PF-382 cell growth in a cell viability assay.

SCC-3 = experiment: cells; assay type: functional, cell-based, Homo sapiens; details: Homo sapiens, SCC-3;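 note: cell viability assay measuring inhibition of SCC-3 cell growth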
Description: SANGER: Inhibition of human SCC-3 cell growth in a cell viability assay.

HCC38 = experiment: cells; assay type: functional, cell-based, Homo sapiens; details: Homo sapiens, HCC38;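 note: cell viability assay on the human HCC38 cell line, with IC50 marking the concentration that inhibits cell growth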
Description: SANGER: Inhibition of human HCC38 cell growth in a cell viability assay.

CHP-212 = experiment: cells; assay type: functional, cell-based, Homo sapiens; details: Homo sapiens, CHP-212
Description: SANGER: Inhibition of human CHP-212 cell growth in a cell viability assay.

Ca-Ski = experiment: cells; assay type: functional, cell-based, Homo sapiens; details: Homo sapiens, Ca-Ski;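 note: cell viability assay measuring inhibition of Ca-Ski cell growth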
Description: SANGER: Inhibition of human Ca-Ski cell growth in a cell viability assay.

J82 = experiment: cells; assay type: functional, cell-based, Homo sapiens; details: Homo sapiens, J82;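 note: growth inhibition of J82 cells, read out with a cell viability assay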
Description: SANGER: Inhibition of human J82 cell growth in a cell viability assay.

HT1197 = experiment: cells; assay type: functional, cell-based, Homo sapiens, HT-1197; details: Homo sapiens, HT1197
Description: SANGER: Inhibition of human HT-1197 cell growth in a cell viability assay.

A-431 = experiment: cells; assay type: functional, cell-based, Homo sapiens; details: Homo sapiens, A-431;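 note: growth inhibition of A-431 cells, determined with a cell viability read-out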
Description: SANGER: Inhibition of human A431 cell growth in a cell viability assay.

BC1 cell line = experiment: SANGER: Inhibition of human BC-1 cell growth in a cell viability assay.; assay type: functional, cell-based; details: Homo sapiens, BC1
BHT-101 = experiment: cells; assay type: functional, cell-based, Homo sapiens; details: Homo sapiens, BHT-101
Description: SANGER: Inhibition of human BHT-101 cell growth in a cell viability assay.

RD = experiment: cells; assay type: functional, cell-based, Homo sapiens; details: Homo sapiens, RD
Description: SANGER: Inhibition of human RD cell growth in a cell viability assay.

SK-MEL-30 = experiment: cells; assay type: functional, cell-based, Homo sapiens; details: Homo sapiens, SK-MEL-30;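 note: growth inhibition of SK-MEL-30 cells, determined with a cell viability assay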
Description: SANGER: Inhibition of human SK-MEL-30 cell growth in a cell viability assay.

SW48 = experiment: cells; assay type: functional, cell-based, Homo sapiens; details: Homo sapiens, SW48;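 note: growth inhibition of SW48 cells, read out with a cell viability assay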
Description: SANGER: Inhibition of human SW48 cell growth in a cell viability assay.

C3A = experiment: cells; assay type: functional, cell-based, Homo sapiens; details: Homo sapiens, C3A;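 note: growth inhibition of C3A human cells, quantified with a cell viability readout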
Description: SANGER: Inhibition of human C3A cell growth in a cell viability assay.

786-0 = experiment: cells; assay type: functional, cell-based, Homo sapiens; details: Homo sapiens
Description: SANGER: Inhibition of human 786-0 cell growth in a cell viability assay.

Daudi = experiment: cells; assay type: functional, cell-based, Homo sapiens; details: Homo sapiens, Daudi;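 note: growth inhibition of Daudi cells, read out by a viability assay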
Description: SANGER: Inhibition of human Daudi cell growth in a cell viability assay.

KYSE-70 cell line = experiment: cells; assay type: functional, cell-based, Homo sapiens; details: Homo sapiens, KYSE-70;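 note: cell viability assay read-out, with IC50 expressing suppression of KYSE-70 cell growth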
Description: SANGER: Inhibition of human KYSE-70 cell growth in a cell viability assay.

HLE = experiment: cells; assay type: functional, cell-based, Homo sapiens; details: Homo sapiens, HLE;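 note: growth inhibition of human HLE cells, read out by a cell viability assay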
Description: SANGER: Inhibition of human HLE cell growth in a cell viability assay.

NCI-H1651 = experiment: cells; assay type: functional, cell-based, Homo sapiens; details: Homo sapiens, NCI-H1651;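 note: Read-out is a cell viability assay, with IC50 expressing inhibition of NCI-H1651 cell growth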
Description: SANGER: Inhibition of human NCI-H1651 cell growth in a cell viability assay.

For `Oc1ccc2ccccc2c1SSc1c(O)ccc2ccccc12`, the IC50 (SK-OV-3) was > 32 µM, the IC50 (HCC1954) was > 32 µM and the IC50 (ACHN) was > 32 µM. For the same compound, the IC50 (TUR) was > 32 µM, the IC50 (ABC-1) was > 32 µM and the IC50 (ChaGo-K-1) was > 32 µM. For the same compound, the IC50 (A204) was > 32 µM, the IC50 (IM-9) was 7.93 µM and the IC50 (KYSE-520 cell line) was > 32 µM. For the same compound, the IC50 (NCI-H1693) was > 32 µM, the IC50 (PC-14) was > 32 µM and the IC50 (NCI-H719) was 12.9 µM. The IC50 (LoVo) was > 32 µM, the IC50 (KP-4) was > 32 µM and the IC50 (T47D) was > 32 µM. For the same compound, the IC50 (HGC-27) was 17.2 µM, the IC50 (ST486) was 4.87 µM and the IC50 (T84) was 12.2 µM. For the same compound, the IC50 (Ca9-22) was 28.1 µM, the IC50 (NCI-H2228) was > 32 µM and the IC50 (HT-29) was > 32 µM. For the same compound, the IC50 (NCI-H1417) was > 32 µM, the IC50 (JEG-3) was > 32 µM and the IC50 (RPMI-2650) was > 32 µM. For the same compound, the IC50 (YT) was 1.39 µM, the IC50 (MeWo) was > 32 µM and the IC50 (ASPC1) was > 32 µM. For the same compound, the IC50 (NCI-H2141) was > 32 µM, the IC50 (PF-382) was 5.35 µM and the IC50 (SCC-3) was > 32 µM. For the same compound, the IC50 (HCC38) was > 32 µM, the IC50 (CHP-212) was 9.1 µM and the IC50 (Ca-Ski) was > 32 µM. The IC50 (J82) was 7.05 µM, the IC50 (HT1197) was 10.3 µM and the IC50 (A-431) was > 32 µM. For the same compound, the IC50 (BC1 cell line) was > 32 µM, the IC50 (BHT-101) was > 32 µM and the IC50 (RD) was > 32 µM. For the same compound, the IC50 (SK-MEL-30) was > 32 µM, the IC50 (SW48) was 21.9 µM and the IC50 (C3A) was 30.3 µM. For the same compound, the IC50 (786-0) was 3.32 µM, the IC50 (Daudi) was 5.68 µM and the IC50 (KYSE-70 cell line) was > 32 µM. The IC50 (HLE) was 4.52 µM and the IC50 (NCI-H1651) was > 32 µM.

`C=C(c1ccc(C(=O)O)cc1)c1cc2c(cc1C)C(C)(C)CCC2(C)C` [BEXAROTENE] was tested, and the IC50 (SK-OV-3) was > 8 µM, the IC50 (HCC1954) was > 8 µM and the IC50 (ACHN) was > 8 µM. The IC50 (TUR) was > 8 µM, the IC50 (ABC-1) was > 8 µM and the IC50 (ChaGo-K-1) was > 8 µM. The IC50 (A204) was > 8 µM, the IC50 (IM-9) was > 8 µM and the IC50 (KYSE-520 cell line) was > 8 µM. For the same compound, the IC50 (NCI-H1693) was > 8 µM, the IC50 (PC-14) was > 8 µM and the IC50 (NCI-H719) was > 8 µM. The IC50 (LoVo) was 5.92 µM, the IC50 (T47D) was > 8 µM and the IC50 (HGC-27) was > 8 µM. For the same compound, the IC50 (ST486) was > 8 µM, the IC50 (T84) was > 8 µM and the IC50 (Ca9-22) was > 8 µM. The IC50 (NCI-H2228) was > 8 µM, the IC50 (HT-29) was > 8 µM and the IC50 (NCI-H1417) was > 8 µM. For the same compound, the IC50 (JEG-3) was > 8 µM, the IC50 (RPMI-2650) was > 8 µM and the IC50 (YT) was > 8 µM. The IC50 (MeWo) was > 8 µM, the IC50 (ASPC1) was > 8 µM and the IC50 (NCI-H2141) was > 8 µM. The IC50 (PF-382) was > 8 µM, the IC50 (SCC-3) was > 8 µM and the IC50 (HCC38) was > 8 µM. For the same compound, the IC50 (CHP-212) was > 8 µM, the IC50 (Ca-Ski) was > 8 µM and the IC50 (J82) was > 8 µM. The IC50 (HT1197) was > 8 µM, the IC50 (A-431) was > 8 µM and the IC50 (BC1 cell line) was > 8 µM. The IC50 (BHT-101) was > 8 µM, the IC50 (RD) was > 8 µM and the IC50 (SK-MEL-30) was > 8 µM. The IC50 (SW48) was > 8 µM, the IC50 (C3A) was > 8 µM and the IC50 (786-0) was > 8 µM. For the same compound, the IC50 (Daudi) was > 8 µM, the IC50 (KYSE-70 cell line) was > 8 µM and the IC50 (HLE) was > 8 µM. The IC50 (NCI-H1651) was > 8 µM.

With `Nc1ccn([C@@H]2O[C@H](CO)[C@@H](O)C2(F)F)c(=O)n1` [GEMCITABINE] the IC50 (SK-OV-3) was 0.0387 µM, the IC50 (HCC1954) was > 1.02 µM and the IC50 (ACHN) was < 0.004 µM. For the same compound, the IC50 (TUR) was 0.032 µM, the IC50 (ABC-1) was 0.0226 µM and the IC50 (ChaGo-K-1) was 0.696 µM. The IC50 (A204) was 0.0112 µM, the IC50 (IM-9) was 0.347 µM and the IC50 (KYSE-520 cell line) was 0.0928 µM. It also gave an IC50 (NCI-H1693) of 0.0461 µM, an IC50 (PC-14) of 0.203 µM and an IC50 (NCI-H719) of 0.892 µM. The IC50 (LoVo) was 0.00571 µM, the IC50 (T47D) was > 1.02 µM and the IC50 (HGC-27) was 0.0096 µM. For the same compound, the IC50 (ST486) was 0.00941 µM, the IC50 (T84) was 0.016 µM and the IC50 (Ca9-22) was 0.00154 µM. For the same compound, the IC50 (NCI-H2228) was < 0.004 µM, the IC50 (HT-29) was < 0.004 µM and the IC50 (NCI-H1417) was > 1.02 µM. The IC50 (JEG-3) was 0.277 µM, the IC50 (RPMI-2650) was 0.0176 µM and the IC50 (YT) was > 1.02 µM. The IC50 (MeWo) was > 1.02 µM, the IC50 (ASPC1) was > 1.02 µM and the IC50 (NCI-H2141) was 0.644 µM. For the same compound, the IC50 (PF-382) was 0.0442 µM, the IC50 (SCC-3) was 0.0896 µM and the IC50 (HCC38) was 0.0219 µM. For the same compound, the IC50 (CHP-212) was 0.00275 µM, the IC50 (Ca-Ski) was 0.00709 µM and the IC50 (J82) was 0.00741 µM. The IC50 (HT1197) was > 1.02 µM, the IC50 (A-431) was < 0.004 µM and the IC50 (BC1 cell line) was 0.0338 µM. The IC50 (BHT-101) was 0.21 µM, the IC50 (RD) was 0.13 µM and the IC50 (SK-MEL-30) was < 0.004 µM. For the same compound, the IC50 (SW48) was 0.463 µM, the IC50 (C3A) was 0.00884 µM and the IC50 (786-0) was < 0.004 µM. The IC50 (Daudi) was 0.569 µM, the IC50 (KYSE-70 cell line) was 0.3 µM and the IC50 (HLE) was 0.003 µM. For the same compound, the IC50 (NCI-H1651) was 0.0211 µM.
